# Test results reported in patent publication US10925858B2, “S-nitrosoglutathione (GSNO) and GSNO reductase inhibitors for use in therapy” (MUSC FOUNDATION FOR RESEARCH DEVELOPMENT, priority 2017, dated 2021).
# Key:
# myosin light chain (MLC) = assay: Western analysis of MLC phosphorylation (Ser19) in thrombin treated hBMVECs; assay type: cell-based, human; conditions: thrombin 0.1 unit/ml 5 min; L-NIO or FeTPPS 10 μM; GSNO or SIN-1 various concentrations
# Method: Cell culture: Primary human brain microvascular endothelial cells (hBMVECs) were purchased from Angio-Proteomie (Cat #: cAP-0002, Atlanta, Ga.). The cells were cultured in cell culture flasks or plates precoated with Quick Coating Solution (Angio-Proteomie; Cat #: cAP-01) and maintained in Endothelial Growth Medium (Angio-Proteomie; Cat #: cAP-02) at 37° C. under 5% CO2/95% air. When the cells were almost confluent, the medium was replaced with endothelial basal medium (Angio-Proteomie; Cat #: cAP-03) containing 0.5% fetal bovine serum (FBS; Life Technologies, Grand Island, N.Y.) about 8-12 hours before the experiment. No institutional approval was required for this study. The study was not pre-registered.
# Western immunoblot analysis was performed by standard method using 50 μg of cell lysates. Following the SDS-PAGE electrophoresis, proteins were transferred from the gel onto the Polyvinylidene fluoride membrane (GE Healthcare Life Sciences, Marlborough, Mass.). Membranes were blocked with non-fat dry milk (Santa Cruz Biotechnology) or I-Block™ (ThermoFisher Scientific, Waltham, Mass.) for detection of phospho-proteins and incubated with primary antibodies, such as MBP (Santa Cruz Biotech Cat #: sc13914; RRID: AB_648798), phospho-(Ser^19) MLC (Abeam, Cat #: ab2480; RRID: AB_303094), MLC (Abeam, Cat #: ab79935; RRID:AB_1952220), P-actin (Santa Cruz Biotechnology, Cat #: sc-47778; RRID:AB_2714189), phospho-eNOS (Ser^1177) (Cell Signaling, Cat #: 9571; RRID: AB_329837, Danvers, Mass.), eNOS (Cell Signaling, Cat #: 32027), RhoA (Santa Cruz Biotechnology; Cat #: sc418; RRID: AB_628218) or 3-nitrotyrosine (Abeam, Cat #: ab61392; RRID: AB_942087). Following washing, the membranes were incubated with horseradish peroxidase conjugated secondary antibody (Jackson Immunoresearch Lab, West Grove, Pa.), washed and then incubated with ECL reagent (Amersham Life Science, Pittsbrugh, Pa.), and exposed to Amersham Hyperfilm ECL film
# [1] = Edema (brain water content) in CCI rat model of TBI; assay type: in vivo, Sprague Dawley rats; conditions: 24 hr after TBI; GSNO 0.05 mg/kg i.v. or FeTPPS 3 mg/kg i.v.
# Description: All animals used in this study received humane care in compliance with the Medical University of South Carolina's (MUSC) guidance and the National Research Council's criteria for humane care. Animal procedures were approved by the institutional animal care and use committee of MUSC (AR #2703). For generation of CCI model of TBI, young adult male (˜3-4 months old) Sprague Dawley rats weighing between 260-300 g were randomly divided into four groups: 1) TBI animals treated with vehicle (TBI; n=13), 2) TBI with GSNO (0.05 mg/kg body weight/i.v.) treatment (TBI+GSNO; n=13), 3) TBI with FeTPPS (3 mg/kg body weight, i.v.) treatment (TBI+FeTPPS; n=13), 4) sham-operated treated with vehicle (Sham; n=13). The group size was determined by power analysis based on our previous data (Khan et al., 2016b; Khan et al., 2009). Ketamine (90 mg/kg body weight) and xylazine (10 mg/kg body weight) as surgical anesthesia were administered intraperitoneally. Analgesic buprenorphine was administered pre-emptively to alleviate pain following surgery. […]
# At 24 h following CCI, animals were euthanized to determine brain water content (edema) as described earlier (Hoda et al., 2009; Khan et al., 2009). […] Each hemisphere was dried at 60° C. for 72 hours, and the dry weight was determined. Water content was calculated in ipsilateral hemisphere as: water content (%)=(wet weight−dry weight)/wet weight×100.
smiles,measurement,setting,value
"Cl.O=S(=O)([O-])c1ccc(-c2c3nc(c(-c4ccc(S(=O)(=O)O)cc4)c4ccc([nH]4)c(-c4ccc(S(=O)(=O)O)cc4)c4nc(c(-c5ccc(S(=O)(=O)O)cc5)c5ccc2[nH]5)C=C4)C=C3)cc1.[Fe] [FeTPPS, 5,10,15,20-Tetrakis(4-sulfonatophenyl)porphyrinato Iron (III), Cl, reference compound]",thrombin-induced MLC phosphorylation,myosin light chain (MLC),inhibited
same,TBI-induced increase in brain water content,[1],reduced
"N[C@@H](CCC(=O)N[C@@H](CSN=O)C(=O)NCC(=O)O)C(=O)O [GSNO, S-nitrosoglutathione]",thrombin-induced MLC phosphorylation,myosin light chain (MLC),attenuated
same,TBI-induced increase in brain water content,[1],reduced
